Data as given in the supplement of paper PMC10307832.

Tests used:
Experiment in all cases: relative viability (nuclei count vs DMSO), 5 days (fraction); higher = more cells survive
NCI-H441 = test system: NCI-H441
Method in brief: (§1)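 Nuclei were stained with Hoechst during a one-step fixation (final 0.05% Triton X-100, 1% formaldehyde, 1 ug/ml Hoechst) carried out 5 days after dosing, then counted on 4× images. The cells, lung cancer lines in 1536-well plates, had been dosed by pin tool the day after seeding with one drug alone or a fixed anchor-drug dose plus five library-drug doses (not always all listed) in √10 steps. Relative viability is the nuclei count in treated wells divided by that in vehicle wells, and each value is the median of duplicate plates.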

NCI-H2170 = test system: NCI-H2170
Method in brief: as §1

NCI-H2347 = test system: NCI-H2347
Method in brief: as §1

EPLC-272H = test system: EPLC-272H
Method in brief: as §1

NCI-H3122 = test system: NCI-H3122
Method in brief: as §1

SW 900 = test system: SW 900
Method in brief: as §1

H3255 = test system: H3255
Method in brief: as §1

HCC-15 = test system: HCC-15
Method in brief: as §1

PC-14 = test system: PC-14
Method in brief: as §1

NCI-H322M = test system: NCI-H322M
Method in brief: as §1

NCI-H2405 = test system: NCI-H2405
Method in brief: as §1

NCI-H1734 = test system: NCI-H1734
Method in brief: as §1

LOU-NH91 = test system: LOU-NH91
Method in brief: as §1

201T = test system: 201T
Method in brief: as §1

NCI-H647 = test system: NCI-H647
Method in brief: as §1

NCI-H1793 = test system: NCI-H1793
Method in brief: as §1

Cc1sc2c(c1C)C(c1ccc(Cl)cc1)=N[C@@H](CC(=O)OC(C)(C)C)c1nnc(C)n1-2 [JQ1] + NC(=O)Nc1cc(-c2cccc(F)c2)sc1C(=O)N[C@H]1CCCNC1 [AZD7762] (partner 0.2 µM)
relative viability (NCI-H441; first compound 0.04 µM): 1.07
relative viability (NCI-H441; first compound 0.1265 µM): 1.16
relative viability (NCI-H441; first compound 0.4 µM): 1.04
relative viability (NCI-H441; first compound 1.265 µM): 0.369
relative viability (NCI-H441; first compound 4 µM): 0.249
relative viability (NCI-H2170; first compound 0.04 µM): 0.785
relative viability (NCI-H2170; first compound 0.1265 µM): 0.564
relative viability (NCI-H2170; first compound 0.4 µM): 0.739
relative viability (NCI-H2170; first compound 1.265 µM): 0.431
relative viability (NCI-H2170; first compound 4 µM): 0.379
relative viability (NCI-H2347; first compound 0.04 µM): 0.811
relative viability (NCI-H2347; first compound 0.1265 µM): 0.917
relative viability (NCI-H2347; first compound 0.4 µM): 0.724
relative viability (NCI-H2347; first compound 1.265 µM): 0.445
relative viability (NCI-H2347; first compound 4 µM): 0.357
relative viability (EPLC-272H; first compound 0.04 µM): 0.244
relative viability (EPLC-272H; first compound 0.1265 µM): 0.122
relative viability (EPLC-272H; first compound 0.4 µM): 0.355
relative viability (EPLC-272H; first compound 1.265 µM): 0.246
relative viability (EPLC-272H; first compound 4 µM): 0.214
relative viability (NCI-H3122; first compound 0.04 µM): 1.04
relative viability (NCI-H3122; first compound 0.1265 µM): 0.965
relative viability (NCI-H3122; first compound 0.4 µM): 0.971
relative viability (NCI-H3122; first compound 1.265 µM): 0.883
relative viability (NCI-H3122; first compound 4 µM): 0.693
relative viability (SW 900; first compound 0.04 µM): 0.562
relative viability (SW 900; first compound 0.1265 µM): 0.556
relative viability (SW 900; first compound 0.4 µM): 0.309
relative viability (SW 900; first compound 1.265 µM): 0.2
relative viability (SW 900; first compound 4 µM): 0.147
relative viability (H3255; first compound 0.04 µM): 0.851
relative viability (H3255; first compound 0.1265 µM): 0.67
relative viability (H3255; first compound 0.4 µM): 0.71
relative viability (H3255; first compound 1.265 µM): 0.411
relative viability (H3255; first compound 4 µM): 0.277
relative viability (HCC-15; first compound 0.04 µM): 1.32
relative viability (HCC-15; first compound 0.1265 µM): 0.924
relative viability (HCC-15; first compound 0.4 µM): 0.978
relative viability (HCC-15; first compound 1.265 µM): 0.512
relative viability (HCC-15; first compound 4 µM): 0.742
relative viability (PC-14; first compound 0.04 µM): 0.267
relative viability (PC-14; first compound 0.1265 µM): 0.259
relative viability (PC-14; first compound 0.4 µM): 0.207
relative viability (PC-14; first compound 1.265 µM): 0.125
relative viability (PC-14; first compound 4 µM): 0.0805
relative viability (NCI-H322M; first compound 0.04 µM): 0.532
relative viability (NCI-H322M; first compound 0.1265 µM): 0.534
relative viability (NCI-H322M; first compound 0.4 µM): 0.44
relative viability (NCI-H322M; first compound 1.265 µM): 0.397
relative viability (NCI-H322M; first compound 4 µM): 0.437
relative viability (NCI-H2405; first compound 0.04 µM): 0.712
relative viability (NCI-H2405; first compound 0.4 µM): 0.646
relative viability (NCI-H2405; first compound 1.265 µM): 0.586
relative viability (NCI-H2405; first compound 4 µM): 0.365
relative viability (NCI-H1734; first compound 0.04 µM): 0.544
relative viability (NCI-H1734; first compound 0.1265 µM): 0.53
relative viability (NCI-H1734; first compound 0.4 µM): 0.47
relative viability (NCI-H1734; first compound 1.265 µM): 0.281
relative viability (NCI-H1734; first compound 4 µM): 0.273
relative viability (LOU-NH91; first compound 0.04 µM): 0.759
relative viability (LOU-NH91; first compound 0.1265 µM): 0.609
relative viability (LOU-NH91; first compound 0.4 µM): 0.664
relative viability (LOU-NH91; first compound 1.265 µM): 0.379
relative viability (LOU-NH91; first compound 4 µM): 0.407
relative viability (201T; first compound 0.04 µM): 0.716
relative viability (201T; first compound 0.4 µM): 0.7
relative viability (201T; first compound 1.265 µM): 0.498
relative viability (201T; first compound 4 µM): 0.393
relative viability (NCI-H647; first compound 0.04 µM): 0.472
relative viability (NCI-H647; first compound 0.1265 µM): 0.293
relative viability (NCI-H647; first compound 0.4 µM): 0.25
relative viability (NCI-H647; first compound 1.265 µM): 0.103
relative viability (NCI-H647; first compound 4 µM): 0.0446
relative viability (NCI-H1793; first compound 0.04 µM): 0.482
relative viability (NCI-H1793; first compound 0.1265 µM): 0.395
relative viability (NCI-H1793; first compound 0.4 µM): 0.824
relative viability (NCI-H1793; first compound 1.265 µM): 0.556
relative viability (NCI-H1793; first compound 4 µM): 0.459

COc1cc2nccc(Oc3ccc(NC(=O)Nc4cc(C)on4)c(Cl)c3)c2cc1OC [Tivozanib] + NC(=O)Nc1cc(-c2cccc(F)c2)sc1C(=O)N[C@H]1CCCNC1 [AZD7762] (partner 0.2 µM)
relative viability (NCI-H441; first compound 0.005 µM): 1.05
relative viability (NCI-H441; first compound 0.01581 µM): 0.935
relative viability (NCI-H441; first compound 0.05 µM): 1.28
relative viability (NCI-H441; first compound 0.1581 µM): 1.35
relative viability (NCI-H441; first compound 0.5 µM): 1.08
relative viability (NCI-H2170; first compound 0.005 µM): 0.689
relative viability (NCI-H2170; first compound 0.01581 µM): 0.785
relative viability (NCI-H2170; first compound 0.05 µM): 0.809
relative viability (NCI-H2170; first compound 0.5 µM): 0.856
relative viability (NCI-H2347; first compound 0.005 µM): 0.73
relative viability (NCI-H2347; first compound 0.01581 µM): 0.836
relative viability (NCI-H2347; first compound 0.05 µM): 0.92
relative viability (NCI-H2347; first compound 0.1581 µM): 0.685
relative viability (NCI-H2347; first compound 0.5 µM): 0.709
relative viability (EPLC-272H; first compound 0.005 µM): 0.147
relative viability (EPLC-272H; first compound 0.01581 µM): 0.159
relative viability (EPLC-272H; first compound 0.05 µM): 0.186
relative viability (EPLC-272H; first compound 0.1581 µM): 0.203
relative viability (EPLC-272H; first compound 0.5 µM): 0.184
relative viability (NCI-H3122; first compound 0.005 µM): 0.97
relative viability (NCI-H3122; first compound 0.01581 µM): 0.876
relative viability (NCI-H3122; first compound 0.05 µM): 0.974
relative viability (NCI-H3122; first compound 0.1581 µM): 1.02
relative viability (NCI-H3122; first compound 0.5 µM): 1.02
relative viability (SW 900; first compound 0.005 µM): 0.649
relative viability (SW 900; first compound 0.01581 µM): 0.636
relative viability (SW 900; first compound 0.05 µM): 0.675
relative viability (SW 900; first compound 0.5 µM): 0.547
relative viability (H3255; first compound 0.005 µM): 0.672
relative viability (H3255; first compound 0.01581 µM): 0.86
relative viability (H3255; first compound 0.05 µM): 0.961
relative viability (H3255; first compound 0.1581 µM): 0.735
relative viability (H3255; first compound 0.5 µM): 0.861
relative viability (HCC-15; first compound 0.005 µM): 1.18
relative viability (HCC-15; first compound 0.01581 µM): 1.28
relative viability (HCC-15; first compound 0.05 µM): 1.34
relative viability (HCC-15; first compound 0.1581 µM): 1.29
relative viability (HCC-15; first compound 0.5 µM): 1.33
relative viability (PC-14; first compound 0.005 µM): 0.333
relative viability (PC-14; first compound 0.01581 µM): 0.338
relative viability (PC-14; first compound 0.05 µM): 0.369
relative viability (PC-14; first compound 0.1581 µM): 0.385
relative viability (PC-14; first compound 0.5 µM): 0.375
relative viability (NCI-H322M; first compound 0.005 µM): 0.562
relative viability (NCI-H322M; first compound 0.01581 µM): 0.767
relative viability (NCI-H322M; first compound 0.05 µM): 0.628
relative viability (NCI-H322M; first compound 0.1581 µM): 0.443
relative viability (NCI-H322M; first compound 0.5 µM): 0.586
relative viability (NCI-H2405; first compound 0.005 µM): 0.759
relative viability (NCI-H2405; first compound 0.01581 µM): 0.893
relative viability (NCI-H2405; first compound 0.05 µM): 0.735
relative viability (NCI-H2405; first compound 0.1581 µM): 0.905
relative viability (NCI-H2405; first compound 0.5 µM): 0.518
relative viability (NCI-H1734; first compound 0.005 µM): 0.515
relative viability (NCI-H1734; first compound 0.01581 µM): 0.524
relative viability (NCI-H1734; first compound 0.05 µM): 0.523
relative viability (NCI-H1734; first compound 0.1581 µM): 0.408
relative viability (NCI-H1734; first compound 0.5 µM): 0.451
relative viability (LOU-NH91; first compound 0.005 µM): 0.712
relative viability (LOU-NH91; first compound 0.01581 µM): 0.77
relative viability (LOU-NH91; first compound 0.05 µM): 0.753
relative viability (LOU-NH91; first compound 0.1581 µM): 0.734
relative viability (LOU-NH91; first compound 0.5 µM): 0.701
relative viability (201T; first compound 0.005 µM): 0.599
relative viability (201T; first compound 0.01581 µM): 0.575
relative viability (201T; first compound 0.05 µM): 0.659
relative viability (201T; first compound 0.1581 µM): 0.595
relative viability (201T; first compound 0.5 µM): 0.601
relative viability (NCI-H647; first compound 0.005 µM): 0.367
relative viability (NCI-H647; first compound 0.01581 µM): 0.42
relative viability (NCI-H647; first compound 0.05 µM): 0.789
relative viability (NCI-H647; first compound 0.1581 µM): 0.377
relative viability (NCI-H647; first compound 0.5 µM): 0.369
relative viability (NCI-H1793; first compound 0.005 µM): 0.448
relative viability (NCI-H1793; first compound 0.01581 µM): 0.391
relative viability (NCI-H1793; first compound 0.05 µM): 0.419
relative viability (NCI-H1793; first compound 0.5 µM): 0.328
